The source of these data is patent US8461107B2 (Merck Sharp & Dohme Corp., priority 2008, dated 2013).

pKi: −log10 of the molar value. A value given as a limit tells only on which side of the number the result lay.

The experiment deals with T1, HCV genotype 1b (BK) NS3 modified with a R155K mutation (Hepatitis C virus genotype 1b, UniProt P26663, R1181K).
T1 construct: HCV genotype 1b (BK) NS3 modified with a R155K mutation
Briefly: HCV NS3 protease time-resolved fluorescence (TRF) assay, NS3 protease 1b R155K Ki activity. In kind it is biochemical. The following applies: HCV genotype 1b (BK) NS3 with R155K mutation; TRF peptide substrate 100 nM; Ki derived from IC50. In outline:
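Pre-incubation of NS3/NS4A protease (genotype 1b BK, R155K) with inhibitor for 30 min, then 1 h at room temperature with 100 nM TRF peptide substrate in pH 7.5 HEPES buffer with 10 mM DTT. Reaction quenched with pH 5.5 MES; time-resolved fluorescence read (ex 340/em 615 nm). Ki derived from four-parameter IC50 fit via IC50=Ki(1+[S]/KM).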

In general, pKi refers to the Ki on a negative log10 scale, so that one unit is a factor of ten. Lower therefore signals a large Ki. As to `CC[C@@H]1C[C@]1(NC(=O)[C@@H]1C[C@@H]2CN1C(=O)[C@H](C(C)(C)C)NC(=O)O[C@H]1CCC[C@@H]1CCCCCCn1c(cc3ccccc3c1=O)O2)C(=O)NS(=O)(=O)C1CC1` [(3aS,7S,10S,12R,26aS)-7-tert-butyl-N-((1R,2R)-1-{[(cyclopropylsulfonyl)amino]carbonyl}-2-ethylcyclopropyl)-5,8,19-trioxo-2,3,3a,5,6,7,8,11,12,21,22,23,24,25,26,26a-hexadecahydro-1H,10H,19H-9,12-methanocyclopenta[19,20][1,10,3,6,12]dioxatriazacycloicosino[12,11-b]isoquinoline-10-carboxamide], the pKi was 8.30 to 9.00.

The compound `C=C[C@@H]1C[C@]1(NC(=O)[C@@H]1C[C@@H]2CN1C(=O)[C@H](C(C)(C)C)NC(=O)O[C@@H]1CCC[C@H]1C/C=C/CCn1c(cc3cc(Cl)ccc3c1=O)O2)C(=O)NS(=O)(=O)C1CC1` [(3aR,7S,10S,12R,23E,25aS)-7-tert-butyl-16-chloro-N-((1R,2S)-1-{[(cyclopropylsulfonyl)amino]carbonyl}-2-vinylcyclopropyl)-5,8,19-trioxo-1,2,3,3a,5,6,7,8,11,12,21,22,25,25a-tetradecahydro-10H,19H-9,12-methanocyclopenta[18,19][1,10,3,6,12]dioxatriazacyclononadecino[12,11-b]isoquinoline-10-carboxamide] showed a pKi above 10.00.

`C=C[C@@H]1C[C@]1(NC(=O)[C@@H]1C[C@@H]2CN1C(=O)[C@H](C1CCCC1)NC(=O)O[C@@H]1CCC[C@H]1C/C=C/CCn1c(cc3cc(OC)ccc3c1=O)O2)C(=O)NS(=O)(=O)C1CC1` [(3aR,7S,10S,12R,23E,25aS)-7-cyclopentyl-N-((1R,2S)-1-{[(cyclopropylsulfonyl)amino]carbonyl}-2-vinylcyclopropyl)-16-methoxy-5,8,19-trioxo-1,2,3,3a,5,6,7,8,11,12,21,22,25,25a-tetradecahydro-10H,19H-9,12-methanocyclopenta[18,19][1,10,3,6,12]dioxatriazacyclononadecino[12,11-b]isoquinoline-10-carboxamide] showed a negative-log Ki (pKi) above 10.00.

`C=C[C@@H]1C[C@]1(NC(=O)[C@@H]1C[C@@H]2CN1C(=O)[C@H](C1CCCC1)NC(=O)O[C@@H]1CCC[C@H]1CC/C=C/Cn1c(nc3c(OC)cccc3c1=O)O2)C(=O)NS(=O)(=O)C1CC1` [Example 51] showed a pKi above 10.00.

Take `C=C[C@@H]1C[C@]1(NC(=O)[C@@H]1C[C@@H]2CN1C(=O)[C@H](C1CCCC1)NC(=O)O[C@@H]1CCC[C@H]1CC/C=C/Cc1c(nc3ccccn3c1=O)O2)C(=O)NS(=O)(=O)C1CC1` [(3aR,7S,10S,12R,22E,25aS)-7-cyclopentyl-N-((1R,2S)-1-{[(cyclopropylsulfonyl)amino]carbonyl}-2-vinylcyclopropyl)-5,8,20-trioxo-1,2,3,3a,5,6,7,8,11,12,21,24,25,25a-tetradecahydro-10H,20H-9,12-methanocyclopenta[r]pyrido[1′,2′:1,2]pyrimido[4,5-k][1,10,3,6]dioxadiazacyclononadecine-10-carboxamide]: the pKi was above 10.00.

In turn, `C=C[C@@H]1C[C@]1(NC(=O)[C@@H]1C[C@@H]2CN1C(=O)[C@H](C1CCCC1)NC(=O)O[C@H]1C[C@@H]1CCCCCn1c(cc3ccccc3c1=O)O2)C(=O)NS(=O)(=O)C1CC1` [(1aS,5S,8S,10R,23aS)-5-cyclopentyl-N-((1R,2S)-1-{[(cyclopropylsulfonyl)amino]carbonyl}-2-vinylcyclopropyl)-3,6,17-trioxo-1,1a,3,4,5,6,9,10,19,20,21,22,23,23a-tetradecahydro-8H,17H-7,10-methanocyclopropa[18,19][1,10,3,6,12]dioxatriazacyclononadecino[12,11-b]isoquinoline-8-carboxamide] had a pKi of 9.30 to 10.00.

Regarding `CC[C@@H]1C[C@]1(NC(=O)[C@@H]1C[C@@H]2CN1C(=O)[C@H](C1CCCC1)NC(=O)O[C@@H]1CCC[C@H]1CCCCCn1c(nc3cccc(OC)c3c1=O)O2)C(=O)NS(=O)(=O)C1CC1` [(3aR,7S,10S,12R,25aR)-7-cyclopentyl-N-((1R,2R)-1-{[(cyclopropylsulfonyl)amino]carbonyl}-2-ethylcyclopropyl)-18-methoxy-5,8,19-trioxo-1,2,3,3a,5,6,7,8,11,12,21,22,23,24,25,25a-hexadecahydro-10H,19H-9,12-methanocyclopenta[18,19][1,10,3,6,12]dioxatriazacyclononadecino[11,12-b]quinazoline-10-carboxamide], the pKi is 9.00 to 9.30.

`CC[C@@H]1C[C@]1(NC(=O)[C@@H]1C[C@@H]2CN1C(=O)[C@H](C(C)(C)C)NC(=O)O[C@@H]1CCC[C@H]1C/C=C/CCn1c(cc3cc(Cl)ccc3c1=O)O2)C(=O)NS(=O)(=O)C1CC1` [(3aR,7S,10S,12R,23E,25aS)-7-tert-butyl-16-chloro-N-((1R,2R)-1-{[(cyclopropylsulfonyl)amino]carbonyl}-2-ethylcyclopropyl)-5,8,19-trioxo-1,2,3,3a,5,6,7,8,11,12,21,22,25,25a-tetradecahydro-10H,19H-9,12-methanocyclopenta[18,19][1,10,3,6,12]dioxatriazacyclononadecino[12,11-b]isoquinoline-10-carboxamide] had a pKi of 9.30 to 10.00.

`C=C[C@@H]1C[C@]1(NC(=O)[C@@H]1C[C@@H]2CN1C(=O)[C@H](C1CCCC1)NC(=O)O[C@@H]1CCC[C@H]1CCCCCn1c(nc3cc(OC)ccc3c1=O)O2)C(=O)NS(=O)(=O)C1(C)CC1` [(1R,18R,22R,26S,29S)-26-cyclopentyl-7-methoxy-N-[(1R,2S)-1-({[(1-methylcyclopropyl)sulfonyl]amino}carbonyl)-2-vinylcyclopropyl]-11,24,27-trioxo-2,23-dioxa-4,12,25,28-tetraazapentacyclo[26.2.1.0^3,12.0^5,10.0^18,22]hentriaconta-3,5,7,9-tetraene-29-carboxamide]: the pKi is above 10.00.

In turn, `C=C[C@@H]1C[C@]1(NC(=O)[C@@H]1C[C@@H]2CN1C(=O)[C@H](C1CCCCC1)NC(=O)O[C@@H]1CCC[C@H]1C/C=C/CCn1c(cc3cc(Cl)ccc3c1=O)O2)C(=O)NS(=O)(=O)C1CC1` [(3aR,7S,10S,12R,23E,25aS)-16-chloro-7-cyclohexyl-N-((1R,2S)-1-{[(cyclopropylsulfonyl)amino]carbonyl}-2-vinylcyclopropyl)-5,8,19-trioxo-1,2,3,3a,5,6,7,8,11,12,21,22,25,25a-tetradecahydro-10H,19H-9,12-methanocyclopenta[18,19][1,10,3,6,12]dioxatriazacyclononadecino[12,11-b]isoquinoline-10-carboxamide] showed a pKi above 10.00.

`CC[C@@H]1C[C@]1(NC(=O)[C@@H]1C[C@@H]2CN1C(=O)[C@H](C(C)(C)C)NC(=O)O[C@@H]1CCC[C@H]1CCCCCCn1c(cc3ccccc3c1=O)O2)C(=O)NS(=O)(=O)C1CC1` [(3aR,7S,10S,12R,26aR)-7-tert-butyl-N-((1R,2R)-1-{[(cyclopropylsulfonyl)amino]carbonyl}-2-ethylcyclopropyl)-5,8,19-trioxo-2,3,3a,5,6,7,8,11,12,21,22,23,24,25,26,26a-hexadecahydro-1H,10H,19H-9,12-methanocyclopenta[19,20][1,10,3,6,12]dioxatriazacycloicosino[12,11-b]isoquinoline-10-carboxamide] showed a pKi of 8.30 to 9.00.

`C=C[C@@H]1C[C@]1(NC(=O)[C@@H]1C[C@@H]2CN1C(=O)[C@H](C1CCCC1)NC(=O)O[C@@H]1CCC[C@H]1CCCCCn1c(nc3cc(C)ccc3c1=O)O2)C(=O)NS(=O)(=O)C1CC1` [(3aR,7S,10S,12R,25aR)-7-cyclopentyl-N-((1R,2S)-1-{[(cyclopropylsulfonyl)amino]carbonyl}-2-vinylcyclopropyl)-16-methyl-5,8,19-trioxo-1,2,3,3a,5,6,7,8,11,12,21,22,23,24,25,25a-hexadecahydro-10H,19H-9,12-methanocyclopenta[18,19][1,10,3,6,12]dioxatriazacyclononadecino[11,12-b]quinazoline-10-carboxamide] had a pKi above 10.00.

In turn, `C=C[C@@H]1C[C@]1(NC(=O)[C@@H]1C[C@@H]2CN1C(=O)[C@H](C1CCCC1)NC(=O)O[C@@H]1CCC[C@H]1C/C=C/CCn1c(cc3ccccc3c1=O)O2)C(=O)NS(=O)(=O)C1CC1` [Example 1, (3aR,7S,10S,12R,23E,25aS)-7-cyclopentyl-N-((1R,2S)-1-{[(cyclopropylsulfonyl)amino]carbonyl}-2-vinylcyclopropyl)-5,8,19-trioxo-1,2,3,3a,5,6,7,8,11,12,21,22,25,25a-tetradecahydro-10H,19H-9,12-methanocyclopenta[18,19][1,10,3,6,12]dioxatiazacyclononadecino[12,11-b]isoquinoline-10-carboxamide] gave a pKi above 10.00.

As for `C=C[C@@H]1C[C@]1(NC(=O)[C@@H]1C[C@@H]2CN1C(=O)[C@H](C1CCCC1)NC(=O)O[C@@H]1CCC[C@H]1CCCCCn1c(nc3cccc(OC)c3c1=O)O2)C(=O)NS(=O)(=O)C1CC1` [(3aR,7S,10S,12R,25aR)-7-cyclopentyl-N-((1R,2S)-1-{[(cyclopropylsulfonyl)amino]carbonyl}-2-vinylcyclopropyl)-18-methoxy-5,8,19-trioxo-1,2,3,3a,5,6,7,8,11,12,21,22,23,24,25,25a-hexadecahydro-10H,19H-9,12-methanocyclopenta[18,19][1,10,3,6,12]dioxatriazacyclononadecino[11,12-b]quinazoline-10-carboxamide], the pKi was 9.30 to 10.00.

`C=C[C@@H]1C[C@]1(NC(=O)[C@@H]1C[C@@H]2CN1C(=O)[C@H](C1CCCC1)NC(=O)O[C@@H]1CCC[C@H]1CC/C=C/Cn1c(nc3cc(C(F)(F)F)ccc3c1=O)O2)C(=O)NS(=O)(=O)C1CC1` [(3aR,7S,10S,12R,22E,25aS)-7-cyclopentyl-N-((1R,2S)-1-{[(cyclopropylsulfonyl)amino]carbonyl}-2-vinylcyclopropyl)-5,8,19-trioxo-16-(trifluoromethyl)-1,2,3,3a,5,6,7,8,11,12,21,24,25,25a-tetradecahydro-10H,19H-9,12-methanocyclopenta[18,19][1,10,3,6,12]dioxatriazacyclononadecino[11,12-b]quinazoline-10-carboxamide] gave a pKi above 10.00.
